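Method: 48-hour compound exposure of cells in 96-well plates, five concentrations, linear interpolation of endpoints. GI50 = concentration required for 50% inhibition of growth.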 The source made the active and inactive calls. No stated cut-off is given here; in the data, active = GI50 up to about 1.1 µM and inactive = higher.
Assays:
Assay in all cases: growth of human tumour cells (NCI), 48 h
786-0 = system: 786-0
A549 = system: A549
ACHN = system: ACHN
CAKI-1 = system: CAKI-1
COLO 205 = system: COLO 205
DLD-1 = system: DLD-1
DMS-114 = system: DMS-114
DMS-273 = system: DMS-273
EKVX = system: EKVX
HCC 2998 = system: HCC 2998
HCT-116 = system: HCT-116
HCT-15 = system: HCT-15
HOP-18 = system: HOP-18
HOP-92 = system: HOP-92
HT-29 = system: HT-29
IGROV-1 = system: IGROV-1
K562 = system: K562
KM-20L2 = system: KM-20L2
KM12 = system: KM12
LXFL 529 = system: LXFL 529
M14 = system: M14
M19-MEL = system: M19-MEL
MOLT-4 = system: MOLT-4
Malme-3M = system: Malme-3M
NCI-H226 = system: NCI-H226
NCI-H23 = system: NCI-H23
NCI-H460 = system: NCI-H460
NCI-H522 = system: NCI-H522
OVCAR-3 = system: OVCAR-3
OVCAR-4 = system: OVCAR-4
OVCAR-5 = system: OVCAR-5
OVCAR-8 = system: OVCAR-8
RPMI-8226 = system: RPMI-8226
RXF 393 = system: RXF 393
RXF 631 = system: RXF 631
SF-295 = system: SF-295
SF-539 = system: SF-539
SK-MEL-28 = system: SK-MEL-28
SK-MEL-2 = system: SK-MEL-2
SK-MEL-5 = system: SK-MEL-5
SK-OV-3 = system: SK-OV-3
SN12C = system: SN12C
SNB-19 = system: SNB-19
SNB-75 = system: SNB-75
SNB-78 = system: SNB-78
SR = system: SR
SW-620 = system: SW-620
TK-10 = system: TK-10
U-251 = system: U-251
UACC-257 = system: UACC-257
UACC-62 = system: UACC-62
UO-31 = system: UO-31
XF498 = system: XF498
A498 = system: A498
CCRF-CEM = system: CCRF-CEM
HL-60 = system: HL-60
HOP-62 = system: HOP-62
LOX IMVI = system: LOX IMVI
SF-268 = system: SF-268

Measured: GI50

CC(C)(C)c1cc(C(O)(C(F)(F)F)C(F)(F)F)c2c(c1)C(C(F)(F)F)(C(F)(F)F)OC(C(C)(C)C)N2 (stereo not drawn)
2.99 µM: HCT-15
active: HOP-92 < 0.01 µM | RXF 393 0.382 µM | XF498 < 0.01 µM
inactive: 786-0 3.24 µM | A549 3.28 µM | ACHN 2.72 µM | CAKI-1 3.12 µM | COLO 205 3.3 µM | DLD-1 4.21 µM | DMS-114 1.12 µM | DMS-273 2.18 µM | EKVX 4.22 µM | HCC 2998 3.88 µM | HCT-116 1.96 µM | HOP-18 2.55 µM | HT-29 2.69 µM | IGROV-1 4.95 µM | K562 2.39 µM | KM-20L2 2.86 µM | KM12 3.65 µM | LXFL 529 2.82 µM | M14 5.13 µM | M19-MEL 2.47 µM | MOLT-4 1.63 µM | Malme-3M 5.31 µM | NCI-H226 2.7 µM | NCI-H23 2.64 µM | NCI-H460 3.27 µM | NCI-H522 2.75 µM | OVCAR-3 2.58 µM | OVCAR-4 6.28 µM | OVCAR-5 10.9 µM | OVCAR-8 3.05 µM | RPMI-8226 1.95 µM | RXF 631 2.15 µM | SF-295 2.63 µM | SF-539 2.55 µM | SK-MEL-28 5.16 µM | SK-MEL-2 2.55 µM | SK-MEL-5 1.57 µM | SK-OV-3 1.43 µM | SN12C 3.3 µM | SNB-19 5.79 µM | SNB-75 2.56 µM | SNB-78 2.75 µM | SR 2.24 µM | SW-620 3.21 µM | TK-10 3.27 µM | U-251 3.61 µM | UACC-257 2.81 µM | UACC-62 3.56 µM | UO-31 7.55 µM

C=C(C)CCN[Si](c1ccccc1)(c1ccccc1)C(C)(C)C
21.9 µM: HCT-15
inactive: 786-0 16.6 µM | A498 28.9 µM | A549 24.1 µM | ACHN 26 µM | CCRF-CEM 25.8 µM | COLO 205 18.5 µM | DMS-114 21.7 µM | DMS-273 18.8 µM | EKVX 22.1 µM | HCC 2998 21.1 µM | HCT-116 14.6 µM | HL-60 20.1 µM | HOP-18 17.2 µM | HOP-62 17.1 µM | HOP-92 18.2 µM | HT-29 16.6 µM | IGROV-1 27.1 µM | K562 24.1 µM | KM-20L2 17.9 µM | KM12 18.5 µM | LOX IMVI 17.8 µM | M14 18.9 µM | M19-MEL 20.5 µM | MOLT-4 18.7 µM | Malme-3M 20.5 µM | NCI-H226 12.1 µM | NCI-H23 19.4 µM | NCI-H460 29 µM | NCI-H522 18.1 µM | OVCAR-3 17.6 µM | OVCAR-4 19 µM | OVCAR-8 19.6 µM | RPMI-8226 24 µM | RXF 393 15.3 µM | RXF 631 20.2 µM | SF-268 30.5 µM | SF-295 19.3 µM | SF-539 15.6 µM | SK-MEL-28 20.3 µM | SK-MEL-2 15.2 µM | SK-MEL-5 19 µM | SK-OV-3 32.3 µM | SN12C 18.2 µM | SNB-19 18.4 µM | SNB-75 28.5 µM | SNB-78 25.1 µM | SW-620 40 µM | TK-10 22.5 µM | U-251 15.4 µM | UACC-257 15.7 µM | UACC-62 17 µM | UO-31 13.7 µM | XF498 24.5 µM

C/C=C(/CCCCNCCCC)[Si](C)(C)C
14.4 µM: HCT-15
inactive: 786-0 12.5 µM | A498 15.5 µM | A549 15.3 µM | ACHN 14 µM | CCRF-CEM 8.26 µM | COLO 205 11 µM | DLD-1 14.6 µM | DMS-114 14.6 µM | DMS-273 18.4 µM | EKVX 12.4 µM | HCC 2998 5.66 µM | HCT-116 12.4 µM | HL-60 6.64 µM | HOP-18 > 10 µM | HOP-92 6.38 µM | HT-29 3.94 µM | IGROV-1 19.2 µM | K562 17.6 µM | KM-20L2 7.52 µM | KM12 14.5 µM | LOX IMVI 14.2 µM | LXFL 529 15.9 µM | M14 14.4 µM | M19-MEL 16.8 µM | MOLT-4 11.4 µM | Malme-3M 16.9 µM | NCI-H23 16.1 µM | NCI-H460 15.6 µM | NCI-H522 11.9 µM | OVCAR-3 14.5 µM | OVCAR-5 14.4 µM | OVCAR-8 15.7 µM | RXF 393 8.65 µM | RXF 631 15 µM | SF-268 12.3 µM | SF-295 15.8 µM | SF-539 14.9 µM | SK-MEL-28 15.8 µM | SK-MEL-2 18.7 µM | SK-MEL-5 13.3 µM | SK-OV-3 18 µM | SN12C 16.2 µM | SNB-19 17.7 µM | SNB-75 13.5 µM | SNB-78 14.2 µM | SR 13.4 µM | SW-620 16.6 µM | TK-10 15 µM | U-251 13.5 µM | UACC-257 15.2 µM | UACC-62 17.6 µM | UO-31 17.5 µM | XF498 11.3 µM

COC(=O)C12CC3CC(CC(C(=O)O)(C3)C1)C2
> 100 µM: HCT-15
inactive: 786-0 > 100 µM | A498 > 100 µM | A549 > 100 µM | ACHN > 100 µM | CAKI-1 > 100 µM | CCRF-CEM > 100 µM | DMS-273 > 100 µM | EKVX > 100 µM | HCC 2998 > 100 µM | HCT-116 > 100 µM | HL-60 > 100 µM | HOP-18 > 100 µM | HOP-62 > 100 µM | HOP-92 > 100 µM | HT-29 > 100 µM | IGROV-1 > 100 µM | K562 > 100 µM | KM-20L2 > 100 µM | KM12 > 100 µM | LOX IMVI > 100 µM | LXFL 529 > 100 µM | M14 > 100 µM | M19-MEL > 100 µM | MOLT-4 > 100 µM | NCI-H23 > 100 µM | NCI-H460 > 100 µM | NCI-H522 > 100 µM | OVCAR-3 > 100 µM | OVCAR-4 > 100 µM | OVCAR-5 > 100 µM | OVCAR-8 > 100 µM | RPMI-8226 > 100 µM | RXF 631 > 100 µM | SF-268 > 100 µM | SF-295 > 100 µM | SF-539 > 100 µM | SK-MEL-28 > 100 µM | SK-MEL-5 > 100 µM | SK-OV-3 > 100 µM | SN12C > 100 µM | SNB-19 > 100 µM | SNB-75 > 100 µM | SNB-78 > 100 µM | SR > 100 µM | SW-620 > 100 µM | TK-10 > 100 µM | U-251 > 100 µM | UACC-257 > 100 µM | UACC-62 > 100 µM | UO-31 > 100 µM | XF498 > 100 µM

Source: ChEMBL document CHEMBL1201862, “PubChem BioAssay data set” (2004)
